The compounds below were run on HCV replicon cells (assay: Cell-based HCV replicon assay (replicon RNA by Taqman real time PCR)). Conditions: HCV replicon 1b, cells harvested on day 3; read-out: 1b EC50.

| Compound | EC50 |
| --- | --- |
| C[C@@]1(N=[N+]=[N-])[C@@H]2OP(=O)(OC3CCC3)OC[C@H]2O[C@H]1n1ccc(=O)[nH]c1=O (stereo partly shown) [Compound 84] | 51000 nM |
| CCCOP1(=O)OC[C@H]2O[C@@H](n3ccc(=O)[nH]c3=O)[C@](C)(N=[N+]=[N-])[C@@H]2O1 (stereo partly shown) [Compound 86] | > 100000 nM |
| C[C@@]1(N=[N+]=[N-])[C@@H]2OP(=O)(OC3CCCC3)OC[C@H]2O[C@H]1n1ccc(=O)[nH]c1=O (stereo partly shown) [Compound 87] | 3100 nM |
| C[C@@]1(N=[N+]=[N-])[C@@H]2OP(=O)(OC3CCCC3)OC[C@H]2O[C@H]1n1ccc(=O)[nH]c1=O (stereo partly shown) [Compound 88] | 400 nM |

Same assay, conditions: Hepatitis C virus, 72 h, HCV replicon 1b, cells harvested on day 3; read-out: 1b EC50

| Compound | EC50 |
| --- | --- |
| CCCOP1(=O)OC[C@H]2O[C@@H](n3ccc(=O)[nH]c3=O)[C@](C)(N=[N+]=[N-])[C@@H]2O1 (stereo partly shown) [Compound 85] | > 100000 nM |
| COc1nc(N)nc2c1ncn2[C@@H]1O[C@@H]2COP(=O)(OC3CCCC3)O[C@H]2[C@@]1(C)N=[N+]=[N-] (stereo partly shown) [Compound 105] | 17100 nM |
| CCOc1nc(N)nc2c1ncn2[C@@H]1O[C@@H]2COP(=O)(OC3CCCCC3)O[C@H]2[C@@]1(C)N=[N+]=[N-] (stereo partly shown) [Compound 106] | 49900 nM |
| C[C@@]1(N=[N+]=[N-])[C@H](O)[C@@H](CO)O[C@H]1n1cnc2c(N3CCC3)nc(N)nc21 [Compound 137] | > 100000 nM |
| C[C@@]1(N=[N+]=[N-])[C@H](O)[C@@H](CO)O[C@H]1n1cnc2c(NC3CC3)nc(N)nc21 [Compound 138] | > 100000 nM |

Same assay, conditions: Hepatitis C virus, 72 h, read-out: 1b EC50

| Compound | EC50 |
| --- | --- |
| CC(C)OC(=O)[C@H](C)NP(=O)(OC[C@H]1O[C@@H](n2ccc(=O)[nH]c2=O)[C@](C)(N=[N+]=[N-])[C@@H]1O)Oc1ccc(Cl)c(Cl)c1 (stereo partly shown) [Compound 92] | 7600 nM |
| COC(=O)[C@H](C)NP(=O)(OC[C@H]1O[C@@H](n2ccc(N)nc2=O)[C@](C)(N=[N+]=[N-])[C@@H]1O)Oc1ccccc1Cl (stereo partly shown) [Compound 93] | 12000 nM |
| C[C@H](NP(=O)(OC[C@H]1O[C@@H](n2ccc(N)nc2=O)[C@](C)(N=[N+]=[N-])[C@@H]1O)Oc1ccccc1)C(=O)OC1CCCC1 (stereo partly shown) [Compound 97] | 15000 nM |
| CCOC(=O)[C@H](C)NP(=O)(OC[C@H]1O[C@@H](n2ccc(=O)[nH]c2=O)[C@](C)(N=[N+]=[N-])[C@@H]1O)Oc1ccc(F)cc1 (stereo partly shown) [Compound 140] | 1400 nM |
| CCOC(=O)[C@H](C)NP(=O)(OC[C@H]1O[C@@H](n2cnc3c(OCC)nc(N)nc32)[C@](C)(N=[N+]=[N-])[C@@H]1O)Oc1ccc(F)cc1 (stereo partly shown) [Compound 141] | 200 nM |
| C[C@H](NP(=O)(OC[C@H]1O[C@@H](n2ccc(=O)[nH]c2=O)[C@](C)(N=[N+]=[N-])[C@@H]1O)Oc1ccccc1)C(=O)OC1CCCCC1 (stereo partly shown) [Compound 144] | 700 nM |
| CCOc1nc(N)nc2c1ncn2[C@@H]1O[C@H](COP(=O)(N[C@@H](C)C(=O)OC2CCCCC2)Oc2ccccc2)[C@@H](O)[C@@]1(C)N=[N+]=[N-] (stereo partly shown) [Compound 145] | 200 nM |
| Cc1ccc(C(C)C)cc1OP(=O)(N[C@@H](C)C(=O)OC(C)C)OC[C@H]1O[C@@H](n2ccc(=O)[nH]c2=O)[C@](C)(N=[N+]=[N-])[C@@H]1O (stereo partly shown) [Compound 177] | 12000 nM |
| CC(=O)CCc1ccc(OP(=O)(N[C@@H](C)C(=O)OC(C)C)OC[C@H]2O[C@@H](n3ccc(=O)[nH]c3=O)[C@](C)(N=[N+]=[N-])[C@@H]2O)cc1 (stereo partly shown) [Compound 178] | 3000 nM |
| CCOC(=O)[C@H](C)NP(=O)(OC[C@H]1O[C@@H](n2ccc(N)nc2=O)[C@](C)(N=[N+]=[N-])[C@@H]1O)Oc1ccccc1Cl (stereo partly shown) [Compound 183] | 3000 nM |
| CC(C)OC(=O)[C@H](C)NP(=O)(OC[C@H]1O[C@@H](n2ccc(N)nc2=O)[C@](C)(N=[N+]=[N-])[C@@H]1O)Oc1ccc(Cl)c(Cl)c1 (stereo partly shown) [Compound 195] | 20 nM |
| CC(C)OC(=O)[C@H](C)NP(=O)(OC[C@H]1O[C@@H](n2ccc(N)nc2=O)[C@](C)(N=[N+]=[N-])[C@@H]1O)Oc1ccc(F)cc1 (stereo partly shown) [Compound 196] | 39000 nM |
| C[C@H](NP(=O)(OC[C@H]1O[C@@H](n2ccc(N)nc2=O)[C@](C)(N=[N+]=[N-])[C@@H]1O)Oc1ccc(F)cc1)C(=O)OC1CCCCC1 (stereo partly shown) [Compound 197] | 400 nM |
| CCOC(=O)[C@H](C)NP(=O)(OC[C@H]1O[C@@H](n2ccc(N)nc2=O)[C@](C)(N=[N+]=[N-])[C@@H]1O)Oc1ccc(Cl)cc1 (stereo partly shown) [Compound 198] | 600 nM |
| COC(=O)c1ccccc1OP(=O)(N[C@@H](C)C(=O)OC(C)C)OC[C@H]1O[C@@H](n2ccc(=O)[nH]c2=O)[C@](C)(N=[N+]=[N-])[C@@H]1O (stereo partly shown) [Compound 219] | 22000 nM |
| CCOC(=O)c1cccc(OP(=O)(N[C@@H](C)C(=O)OC)OC[C@H]2O[C@@H](n3cnc4c(OC)nc(N)nc43)[C@](C)(N=[N+]=[N-])[C@@H]2O)c1 (stereo partly shown) [Compound 221] | 800 nM |

| Compound | EC50 |
| --- | --- |
| CCOC(=O)c1cccc(OP(=O)(N[C@@H](C)C(=O)OC)OC[C@H]2O[C@@H](n3ccc(=O)[nH]c3=O)[C@](C)(N=[N+]=[N-])[C@@H]2O)c1 (stereo partly shown) [Compound 222] | 10 nM |
| COC(=O)c1ccccc1OP(=O)(N[C@@H](C)C(=O)OC)OC[C@H]1O[C@@H](n2cnc3c(OC)nc(N)nc32)[C@](C)(N=[N+]=[N-])[C@@H]1O (stereo partly shown) [Compound 223] | 8800 nM |
| CCOC(=O)c1ccccc1OP(=O)(N[C@@H](C)C(=O)OC)OC[C@H]1O[C@@H](n2cnc3c(OC)nc(N)nc32)[C@](C)(N=[N+]=[N-])[C@@H]1O (stereo partly shown) [Compound 224] | 3300 nM |
| COC(=O)[C@H](C)NP(=O)(OC[C@H]1O[C@@H](n2ccc(=O)[nH]c2=O)[C@](C)(N=[N+]=[N-])[C@@H]1O)Oc1ccc(Cl)c(Cl)c1 (stereo partly shown) [Compound 229] | 30 nM |
| C[C@H](NP(=O)(OC[C@H]1O[C@@H](n2ccc(=O)[nH]c2=O)[C@](C)(N=[N+]=[N-])[C@@H]1O)Oc1cccc2ccccc12)C(=O)OCc1ccccc1 (stereo partly shown) [Compound 230] | 14000 nM |
| COc1nc(N)nc2c1ncn2[C@@H]1O[C@H](COP(=O)(N[C@@H](C)C(=O)OC2CCCCC2)Oc2ccccc2)[C@@H](O)[C@@]1(C)N=[N+]=[N-] (stereo partly shown) [Compound 239] | 3600 nM |
| COc1nc(N)nc2c1ncn2[C@@H]1O[C@H](COP(=O)(N[C@@H](C)C(=O)OC(C)C)Oc2ccccc2Cl)[C@@H](O)[C@@]1(C)N=[N+]=[N-] (stereo partly shown) [Compound 240] | 5800 nM |
| COc1nc(N)nc2c1ncn2[C@@H]1O[C@H](COP(=O)(N[C@@H](C)C(=O)OC2CCCCC2)Oc2ccc(F)cc2)[C@@H](O)[C@@]1(C)N=[N+]=[N-] (stereo partly shown) [Compound 241] | 1900 nM |
| COC(=O)[C@H](C)NP(=O)(OC[C@H]1O[C@@H](n2cnc3c(OC)nc(N)nc32)[C@](C)(N=[N+]=[N-])[C@@H]1O)Oc1ccc(F)cc1 (stereo partly shown) [Compound 242] | 2600 nM |
| COc1nc(N)nc2c1ncn2[C@@H]1O[C@H](COP(=O)(N[C@@H](C)C(=O)OC(C)C)Oc2ccc(F)cc2)[C@@H](O)[C@@]1(C)N=[N+]=[N-] (stereo partly shown) [Compound 243] | 1400 nM |
| COc1nc(N)nc2c1ncn2[C@@H]1O[C@H](COP(=O)(N[C@@H](C)C(=O)OC(C)C)Oc2ccc(Cl)c(Cl)c2)[C@@H](O)[C@@]1(C)N=[N+]=[N-] (stereo partly shown) [Compound 244] | 6000 nM |
| COc1nc(N)nc2c1ncn2[C@@H]1O[C@H](COP(=O)(N[C@@H](C)C(=O)OCC(C)C)Oc2ccccc2)[C@@H](O)[C@@]1(C)N=[N+]=[N-] (stereo partly shown) [Compound 245] | 400 nM |
| COc1nc(N)nc2c1ncn2[C@@H]1O[C@H](COP(=O)(N[C@@H](C)C(=O)OCc2ccccc2)Oc2ccccc2)[C@@H](O)[C@@]1(C)N=[N+]=[N-] (stereo partly shown) [Compound 246] | 600 nM |
| CCOC(=O)[C@H](C)NP(=O)(OC[C@H]1O[C@@H](n2cnc3c(OC)nc(N)nc32)[C@](C)(N=[N+]=[N-])[C@@H]1O)Oc1ccc(F)cc1 (stereo partly shown) [Compound 247] | 700 nM |
| COC(=O)[C@H](C)NP(=O)(OC[C@H]1O[C@@H](n2cnc3c(OC)nc(N)nc32)[C@](C)(N=[N+]=[N-])[C@@H]1O)Oc1ccc(Cl)c(Cl)c1 (stereo partly shown) [Compound 248] | 1000 nM |
| CCCCOC(=O)[C@H](C)NP(=O)(OC[C@H]1O[C@@H](n2cnc3c(OC)nc(N)nc32)[C@](C)(N=[N+]=[N-])[C@@H]1O)Oc1ccccc1 (stereo partly shown) [Compound 249] | 900 nM |

Same assay, conditions: read-out: 1b EC50

| Compound | EC50 |
| --- | --- |
| C[C@H](NP(=O)(OC[C@H]1O[C@@H](n2ccc(=O)[nH]c2=O)[C@](C)(N=[N+]=[N-])[C@@H]1O)Oc1ccc(F)cc1)C(=O)OC1CCCCC1 (stereo partly shown) [Compound 89] | > 100000 nM |
| C[C@H](NP(=O)(OC[C@H]1O[C@@H](n2ccc(=O)[nH]c2=O)[C@](C)(N=[N+]=[N-])[C@@H]1O)Oc1ccc(F)cc1)C(=O)OC1CCCCC1 (stereo partly shown) [Compound 90] | 2100 nM |
| COC(=O)[C@H](C)NP(=O)(OC[C@H]1O[C@@H](n2ccc(N)nc2=O)[C@](C)(N=[N+]=[N-])[C@@H]1O)Oc1ccccc1Cl (stereo partly shown) [Compound 94] | 10000 nM |
| CC(C)OC(=O)[C@H](C)NP(=O)(OC[C@H]1O[C@@H](n2ccc(N)nc2=O)[C@](C)(N=[N+]=[N-])[C@@H]1O)Oc1ccccc1Cl (stereo partly shown) [Compound 95] | 4500 nM |
| CC(C)OC(=O)[C@H](C)NP(=O)(OC[C@H]1O[C@@H](n2ccc(N)nc2=O)[C@](C)(N=[N+]=[N-])[C@@H]1O)Oc1ccccc1Cl (stereo partly shown) [Compound 96] | 600 nM |
| CCOC(=O)[C@H](C)NP(=O)(OC[C@H]1O[C@@H](n2ccc(N)nc2=O)[C@](C)(N=[N+]=[N-])[C@@H]1O)Oc1ccccc1Cl (stereo partly shown) [Compound 184] | 5700 nM |
| C[C@H](NP(=O)(OC[C@H]1O[C@@H](n2ccc(N)nc2=O)[C@](C)(N=[N+]=[N-])[C@@H]1O)Oc1ccccc1)C(=O)OC1CCCC1 (stereo partly shown) [Compound 205] | 15000 nM |
| CC(C)OC(=O)[C@H](C)NP(=O)(OC[C@H]1O[C@@H](n2ccc(=O)[nH]c2=O)[C@](C)(N=[N+]=[N-])[C@@H]1O)Oc1ccc2c(c1)OCO2 (stereo partly shown) [Compound 234] | 25000 nM |
| COC(=O)[C@H](C)NP(=O)(OC[C@H]1O[C@@H](n2ccc(=O)[nH]c2=O)[C@](C)(N=[N+]=[N-])[C@@H]1O)Oc1cccc2ccccc12 (stereo partly shown) [Compound 235] | 3 nM |
| COC(=O)[C@H](C)NP(=O)(OC[C@H]1O[C@@H](n2ccc(=O)[nH]c2=O)[C@](C)(N=[N+]=[N-])[C@@H]1O)Oc1ccccc1Cl (stereo partly shown) [Compound 236] | 6400 nM |
| CCOC(=O)[C@H](C)NP(=O)(OC[C@H]1O[C@@H](n2cnc3c(OC)nc(N)nc32)[C@](C)(N=[N+]=[N-])[C@@H]1O)Oc1ccccc1 (stereo partly shown) [Compound 250] | 700 nM |

Source: patent US9156872B2, “2′-azido substituted nucleoside derivatives and methods of use thereof for the treatment of viral diseases” (priority 2011, dated 2015)
